Tests used:
[1] = molecular target: T1, Proteasome Macropain subunit MB1 (Homo sapiens, UniProt P28074); experiment: Inhibition of chymotrypsin like activity of human 20S proteasome using Suc-Leu-Leu-Val-Tyr-AMC as substrate preincubated for 10 mins followed by substrate addition measured after 1 hr by spectrofluorimetric analysis
T1 sequence (P28074 whole entry): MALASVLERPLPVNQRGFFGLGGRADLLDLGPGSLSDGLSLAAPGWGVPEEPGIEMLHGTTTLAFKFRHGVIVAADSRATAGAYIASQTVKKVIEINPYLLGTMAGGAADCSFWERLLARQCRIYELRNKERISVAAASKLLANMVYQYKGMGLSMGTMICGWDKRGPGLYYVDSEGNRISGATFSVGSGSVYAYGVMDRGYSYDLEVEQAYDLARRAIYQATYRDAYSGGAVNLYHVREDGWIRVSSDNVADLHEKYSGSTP

[2] = Cytotoxicity against human U266B1 cells assessed as cell viability after 72 hrs by CellTiter 96 aqueous one solution cell proliferation assay; format: functional, U-266
[3] = Cytotoxicity against human ARH77 cells assessed as cell viability after 72 hrs by CellTiter 96 aqueous one solution cell proliferation assay; format: functional, ARH-77
[4] = Cytotoxicity against human RPMI8226 cells assessed as cell viability after 72 hrs by CellTiter 96 aqueous one solution cell proliferation assay; format: functional, RPMI-8226
Rattus norvegicus [5] = experiment: Cmax in Sprague-Dawley rat at 0.2 mg/kg, ig through feeding tube by LC/MS/MS analysis; format: ADME, organism-based; set-up: dose 0.2 mg/kg, route intragastric; settings: in vivo, po
[6] = MRTlast in Sprague-Dawley rat at 1 mg/kg, caudal iv by LC/MS/MS analysis; format: ADME, organism-based; settings: in vivo
[7] = Elimination half life in Sprague-Dawley rat at 1 mg/kg, caudal iv by LC/MS/MS analysis; format: ADME, organism-based; settings: in vivo, read-out: beta t1/2 (converted)
Rattus norvegicus [8] = experiment: Tmax in Sprague-Dawley rat at 0.2 mg/kg, ig through feeding tube by LC/MS/MS analysis; format: ADME, organism-based; settings: in vivo, po
[9] = Cell cycle arrest in human U266 cells assessed as accumulation at G1 phase at 10 nM by propidium iodide/RNase staining based flow cytometric analysis (reference value: 58.21 %); format: functional; settings: U-266
[10] = Cmax in Sprague-Dawley rat at 1 mg/kg, caudal iv by LC/MS/MS analysis; format: ADME, organism-based; set-up: dose 1 mg/kg, route intravenous; settings: in vivo
Rattus norvegicus [11] = experiment: AUC(0 to infinity) in Sprague-Dawley rat at 0.2 mg/kg, ig through feeding tube by LC/MS/MS analysis; format: ADME, organism-based; set-up: dose 0.2 mg/kg, route intragastric, time infinity; settings: in vivo, po
[12] = AUC(0 to infinity) in Sprague-Dawley rat at 1 mg/kg, caudal iv by LC/MS/MS analysis; format: ADME, organism-based; set-up: dose 1 mg/kg, route intravenous, time infinity; settings: in vivo
[13] = Cell cycle arrest in human U266 cells assessed as accumulation at G2/M phase at 10 nM by propidium iodide/RNase staining based flow cytometric analysis (reference value: 12.33 %); format: functional; settings: U-266
[14] = AUClast in Sprague-Dawley rat at 0.2 mg/kg, ig through feeding tube by LC/MS/MS analysis; format: ADME, organism-based; set-up: dose 0.2 mg/kg, route intragastric, time 0 - last; settings: in vivo, po
[15] = MRTlast in Sprague-Dawley rat at 0.2 mg/kg, ig through feeding tube by LC/MS/MS analysis; format: ADME, organism-based; settings: in vivo, po
[16] = AUClast in Sprague-Dawley rat at 1 mg/kg, caudal iv by LC/MS/MS analysis; format: ADME, organism-based; set-up: dose 1 mg/kg, route intravenous, time 0 - last; settings: in vivo
[17] = Cell cycle arrest in human U266 cells assessed as accumulation at S phase at 10 nM by propidium iodide/RNase staining based flow cytometric analysis (reference value: 29.47 %); format: functional; settings: U-266
Rattus norvegicus [18] = experiment: Elimination half life in Sprague-Dawley rat at 0.2 mg/kg, ig through feeding tube by LC/MS/MS analysis; format: ADME, organism-based; settings: in vivo, po

Row | Compound | IC50 ([1]; read-out: IC50) | further results
1 | CC(C)C[C@H](NC(=O)[C@H](Cc1ccc(O)cc1)NC(=O)OC(C)(C)C)B1OC2C[C@@H]3C[C@@H](C3(C)C)[C@]2(C)O1 (stereo partly specified) | 16.4 nM | 
2 | CCCC[C@H](NC(=O)[C@H](CC(C)C)NC(=O)OC(C)(C)C)B1OC2C[C@@H]3C[C@@H](C3(C)C)[C@]2(C)O1 (stereo partly specified) | 49.5 nM | 
3 | CCC(C)[C@H](NC(=O)C1CCCc2ccccc21)C(=O)N[C@@H](CC(C)C)B1OC2C[C@@H]3C[C@@H](C3(C)C)[C@]2(C)O1 (stereo partly specified) | 17.2 nM | 
4 | O=C(N[C@@H](Cc1ccccc1)C(=O)N[C@@H](Cc1ccc(F)cc1)B(O)O)c1cnccn1 | 4.37 nM | 
5 | CC1(C)[C@@H]2CC3OB([C@H](Cc4ccc(F)cc4)NC(=O)[C@H](Cc4ccccc4)NC(=O)[C@H]4CCCc5ccccc54)O[C@@]3(C)[C@H]1C2 (stereo partly specified) | 1.26 nM | 
6 | CC1(C)[C@@H]2CC3OB([C@H](Cc4ccc(F)cc4)NC(=O)[C@H](Cc4ccccc4)NC(=O)c4cnccn4)O[C@@]3(C)[C@H]1C2 (stereo partly specified) | 3.21 nM | 
7 | CC(C)C[C@H](NC(=O)[C@H](Cc1cc(C(F)(F)F)cc(C(F)(F)F)c1)NC(=O)c1cc(Cl)ccc1Cl)B(O)O | 25 nM | 
8 | Cc1ccc(C[C@H](NC(=O)[C@H](Cc2c[nH]c3ccccc23)NC(=O)OCc2ccccc2)B2OC3C[C@@H]4C[C@@H](C4(C)C)[C@]3(C)O2)cc1 (stereo partly specified) | 3.34 nM | 
9 | Cc1ccc(C[C@H](NC(=O)[C@H](CC(C)C)NC(=O)OC(C)(C)C)B2OC3C[C@@H]4C[C@@H](C4(C)C)[C@]3(C)O2)cc1 (stereo partly specified) | 471 nM | 
10 | Cc1ccc(C[C@H](NC(=O)[C@H](Cc2ccccc2)NC(=O)c2cnccn2)B2OC3C[C@@H]4C[C@@H](C4(C)C)[C@]3(C)O2)cc1 (stereo partly specified) | 4.85 nM | 
11 | Cc1cnc(C(=O)N[C@@H](Cc2ccccc2)C(=O)N[C@@H](CC(C)C)B(O)O)cn1 | 26.2 nM | 
12 | CC(=O)N[C@@H](Cc1ccccc1)C(=O)N[C@@H](Cc1ccc(C)cc1)B1OC2C[C@@H]3C[C@@H](C3(C)C)[C@]2(C)O1 (stereo partly specified) | 2.73 nM | 
13 | Cc1ccc(C[C@H](NC(=O)[C@H](Cc2ccccc2)NC(=O)C2CCc3ccccc3C2)B2OC3C[C@@H]4C[C@@H](C4(C)C)[C@]3(C)O2)cc1 (stereo partly specified) | 1.16 nM | 
14 | CCCC[C@H](NC(=O)[C@H](Cc1ccccc1)NC(=O)[C@H]1CCCc2ccccc21)B1OC2C[C@@H]3C[C@@H](C3(C)C)[C@]2(C)O1 (stereo partly specified) | 1.92 nM | 
15 | CC(C)C[C@H](NC(=O)OC(C)(C)C)C(=O)N[C@@H](Cc1ccccc1)B1OC2C[C@@H]3C[C@@H](C3(C)C)[C@]2(C)O1 (stereo partly specified) | 120 nM | 
16 | CC(C)C[C@H](NC(=O)[C@H](Cc1ccc(C(F)(F)F)cc1)NC(=O)c1cc(Cl)ccc1Cl)B(O)O | 8.32 nM | Activity [2]: 100.4%; Activity [3]: 98.15%; Activity [4]: 233.7%
17 | CC(C)(C)OC(=O)N[C@@H](Cc1ccc(O)cc1)C(=O)N[C@@H](Cc1ccccc1)B1OC2C[C@@H]3C[C@@H](C3(C)C)[C@]2(C)O1 (stereo partly specified) | 114 nM | 
18 | COc1ccc(C[C@H](NC(=O)c2cc(Cl)ccc2Cl)C(=O)N[C@@H](CC(C)C)B(O)O)c(OC)c1 | 4.6 nM | Cmax (Rattus norvegicus [5]): 245 ng/mL; Activity [2]: 18.66%; MRT last [6]: 8.44 h; half-life [7]: 7.24 h; Tmax (Rattus norvegicus [8]): 1.8 min; Activity [3]: 14.58%; Activity [9]: 43.7%; Cmax [10]: 7.83 ng/mL; AUC (Rattus norvegicus [11]): 408 ng·h/mL; AUC(0-inf) [12]: 83 ng·h/mL; Activity [13]: 21.5%; AUC(0-t) [14]: 407 ng·h/mL; MRT last [15]: 6.9 h; Activity [4]: 37.78%; AUC(0-t) [16]: 47.9 ng·h/mL; Activity [17]: 34.8%; beta t1/2 (Rattus norvegicus [18]): 0.2 h
19 | CCCC[C@H](NC(=O)[C@H](Cc1ccccc1)NC(C)=O)B1OC2C[C@@H]3C[C@@H](C3(C)C)[C@]2(C)O1 (stereo partly specified) | 8.46 nM | 
20 | CC(C)C[C@H](NC(=O)[C@@H](NC(=O)C1CCCc2ccccc21)C(C)C)B1OC2C[C@@H]3C[C@@H](C3(C)C)[C@]2(C)O1 (stereo partly specified) | 39 nM | 
21 | CC(=O)N[C@@H](Cc1ccccc1)C(=O)N[C@@H](CC(C)C)B1OC2C[C@@H]3C[C@@H](C3(C)C)[C@]2(C)O1 (stereo partly specified) | 2.34 nM | 
22 | CC(C)C[C@H](NC(=O)[C@H](CC(C)C)NC(=O)C1CCCc2ccccc21)B1OC2C[C@@H]3C[C@@H](C3(C)C)[C@]2(C)O1 (stereo partly specified) | 14.2 nM | 
23 | CC1(C)[C@@H]2CC3OB([C@H](Cc4ccccc4)NC(=O)[C@H](Cc4ccccc4)NC(=O)[C@H]4CCCc5ccccc54)O[C@@]3(C)[C@H]1C2 (stereo partly specified) | 5.24 nM | 
24 | CC1(C)[C@@H]2CC3OB([C@H](Cc4ccccc4)NC(=O)[C@H](Cc4ccccc4)NC(=O)C4CCc5ccccc5C4)O[C@@]3(C)[C@H]1C2 (stereo partly specified) | 3.37 nM | 
25 | CC(C)C[C@H](NC(=O)[C@H](Cc1ccc(C(F)(F)F)cc1)NC(=O)c1cnccn1)B(O)O | 42.6 nM | 
26 | CC(C)C[C@H](NC(=O)[C@H](Cc1ccccc1)NC(=O)c1cnccn1)B(O)O [BORTEZOMIB] |  | Activity [2]: 11.63%; Activity [3]: 9.57%; Activity [4]: 11.2%

The next lines start with results.

Row | IC50 ([1]; read-out: IC50) | Compound | further results
27 | 1.15 nM | CC(C)C[C@H](NC(=O)[C@H](CC(C)C)NC(=O)c1cccc2c1CCCC2)B1OC2C[C@@H]3C[C@@H](C3(C)C)[C@]2(C)O1 (stereo partly specified) | 
28 | 2.46 nM | CC(C)C[C@H](NC(=O)[C@H](Cc1cccc2ccccc12)NC(=O)c1ccc2ccccc2c1)B1OC2C[C@@H]3C[C@@H](C3(C)C)[C@]2(C)O1 (stereo partly specified) | 
29 | 6.12 nM | CC(C)C[C@H](NC(=O)[C@H](Cc1ccc2ccccc2c1)NC(=O)[C@H]1CCCc2ccccc21)B1OC2C[C@@H]3C[C@@H](C3(C)C)[C@]2(C)O1 (stereo partly specified) | 
30 | 1.34 nM | CC(C)C[C@H](NC(=O)[C@H](Cc1cccc2ccccc12)NC(=O)c1cccc2c1CCCC2)B1OC2C[C@@H]3C[C@@H](C3(C)C)[C@]2(C)O1 (stereo partly specified) | 
31 | 6.96 nM | CC(C)C[C@H](NC(=O)[C@@H](NC(=O)c1cccc2c1CCCC2)C(C)C)B1OC2C[C@@H]3C[C@@H](C3(C)C)[C@]2(C)O1 (stereo partly specified) | 
32 | 4.18 nM | CC(C)C[C@H](NC(=O)[C@H](Cc1ccccc1)NC(=O)C1CCCc2ccccc21)B1OC2C[C@@H]3C[C@@H](C3(C)C)[C@]2(C)O1 (stereo partly specified) | 
33 | 41.2 nM | CC(C)C[C@H](NC(=O)[C@H](Cc1c[nH]c2ccccc12)NC(=O)OCc1ccccc1)B1OC2C[C@@H]3C[C@@H](C3(C)C)[C@]2(C)O1 (stereo partly specified) | 
34 | 1.12 nM | CC(C)C[C@H](NC(=O)[C@H](Cc1ccccc1)NC(=O)[C@H]1CCCc2ccccc21)B1OC2C[C@@H]3C[C@@H](C3(C)C)[C@]2(C)O1 (stereo partly specified) | 
35 | 4.26 nM | CC(C)C[C@H](NC(=O)[C@H](Cc1cccc2ccccc12)NC(=O)C1CCCc2ccccc21)B1OC2C[C@@H]3C[C@@H](C3(C)C)[C@]2(C)O1 (stereo partly specified) | 
36 | 1.16 nM | CC(C)C[C@H](NC(=O)[C@H](Cc1ccc2ccccc2c1)NC(=O)c1cccc2c1CCCC2)B1OC2C[C@@H]3C[C@@H](C3(C)C)[C@]2(C)O1 (stereo partly specified) | 
37 | 5.17 nM | CC(C)C[C@H](NC(=O)[C@H](Cc1ccccc1)NC(=O)[C@@H]1CCCc2ccccc21)B1OC2C[C@@H]3C[C@@H](C3(C)C)[C@]2(C)O1 (stereo partly specified) | 
38 | 6.7 nM | Cc1ccc(C[C@H](NC(=O)[C@H](Cc2ccccc2)NC(=O)[C@H]2CCCc3ccccc32)B2OC3C[C@@H]4C[C@@H](C4(C)C)[C@]3(C)O2)cc1 (stereo partly specified) | 
39 | 0.76 nM | CC(C)C[C@H](NC(=O)[C@H](Cc1ccccc1)NC(=O)c1cccc2c1CCCC2)B1OC2C[C@@H]3C[C@@H](C3(C)C)[C@]2(C)O1 (stereo partly specified) | IC50 ([1]; read-out: pIC50 (converted)): 1.32 nM
40 | 7.63 nM | CC(C)C[C@H](NC(=O)[C@H](Cc1ccc2ccccc2c1)NC(=O)C1CCCc2ccccc21)B1OC2C[C@@H]3C[C@@H](C3(C)C)[C@]2(C)O1 (stereo partly specified) | 
41 | 1.46 nM | CC(C)C[C@H](NC(=O)[C@H](Cc1ccccc1)NC(=O)C1CCc2ccccc2C1)B1OC2C[C@@H]3C[C@@H](C3(C)C)[C@]2(C)O1 (stereo partly specified) | 
42 | 3.67 nM | CC(C)C[C@H](NC(=O)[C@H](Cc1c[nH]c2ccccc12)NC(=O)C1CCCc2ccccc21)B1OC2C[C@@H]3C[C@@H](C3(C)C)[C@]2(C)O1 (stereo partly specified) | 
43 | 1.92 nM | CC(C)C[C@H](NC(=O)[C@H](Cc1ccccc1)NC(=O)c1cnccn1)B1OC2C[C@@H]3C[C@@H](C3(C)C)[C@]2(C)O1 (stereo partly specified) | 

Reference: ChEMBL document CHEMBL3792352, “3D-QSAR-aided design, synthesis, in vitro and in vivo evaluation of dipeptidyl boronic acid proteasome inhibitors and mechanism studies” (Bioorg Med Chem, 2016)
